Reference: patent US20220056014A1, “PHENYLPYRROLIDINE COMPOUND AND USE THEREOF” (WUHAN HUMANWELL INNOVATIVE DRUG RESEARCH AND DEVELOPMENT …, priority 2018, published 2022)
Like-named read-outs stand apart in the source and are kept apart here.

What was measured:
PDE4B = target: T1, PDE4B (Homo sapiens, UniProt Q07343); experiment: PDE4B enzyme activity assay (PDE-Glo Phosphodiesterase Assay Kit); format: biochemical; details: for IC50 (PDE4D)/IC50 (PDE4B): selectivity ratio
T1 construct: purchased Enzo Life Sciences BML-SE522-0020
T1 sequence (Q07343 whole entry): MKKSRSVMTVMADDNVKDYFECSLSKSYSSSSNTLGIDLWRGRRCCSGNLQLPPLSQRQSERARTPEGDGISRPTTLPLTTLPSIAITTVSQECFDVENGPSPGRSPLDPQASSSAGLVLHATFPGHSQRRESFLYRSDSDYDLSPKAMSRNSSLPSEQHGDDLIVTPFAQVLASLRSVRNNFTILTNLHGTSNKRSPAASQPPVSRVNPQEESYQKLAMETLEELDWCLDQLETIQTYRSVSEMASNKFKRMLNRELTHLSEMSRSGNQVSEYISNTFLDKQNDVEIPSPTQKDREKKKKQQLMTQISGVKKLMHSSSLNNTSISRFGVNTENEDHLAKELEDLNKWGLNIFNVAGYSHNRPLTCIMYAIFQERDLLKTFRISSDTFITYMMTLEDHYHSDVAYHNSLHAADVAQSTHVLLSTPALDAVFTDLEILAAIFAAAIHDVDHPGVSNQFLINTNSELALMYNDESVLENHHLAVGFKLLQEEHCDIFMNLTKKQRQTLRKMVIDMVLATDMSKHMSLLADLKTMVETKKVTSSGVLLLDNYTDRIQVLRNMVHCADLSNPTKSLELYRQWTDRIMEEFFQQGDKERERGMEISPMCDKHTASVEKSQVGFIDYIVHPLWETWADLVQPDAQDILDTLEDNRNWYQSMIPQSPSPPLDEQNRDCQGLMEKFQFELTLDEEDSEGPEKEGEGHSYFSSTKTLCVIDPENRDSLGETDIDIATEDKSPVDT
Procedure: (§1) For the previously synthesized compounds, the inhibitory activity of the compounds against PDE4B and against PDE4D was tested by using PDE-Glo Phosphodiesterase Assay Kit (promega, V1361). In short, in accordance with the instructions of the kit, a concentrated stock solution (10 mM) the compound to be tested was first prepared with DMSO solvent, and the concentrated stock solution was then diluted into 10× working solutions with a Reaction buffer provided in the kit. With the Reaction buffer, on ice, PDE4B enzyme (Enzo Life Sciences, BML-SE522-0020) was diluted to a concentration of 1 ng/μl to obtain a PDE4B enzyme working solution, and PDE4D enzyme (Enzo Life Sciences, BML-SE523-0020) was diluted to a concentration of 4 ng/μl to obtain a PDE4D enzyme working solution. 1.5 μl of the PDE4B working solution (or PDE4D working solution) and 1 μl of the compound working solution were added to wells of 384-well plate (Corning, CLS3707), and incubated with shaking at room temperature for 5 min, followed by adding 2.5 μl of cAMP (in Reaction buffer, 2 μM) per well, incubating with shaking at room temperature for 20 min. 2.5 μl/well of 1× Termination Buffer, and then 2.5 μl/well of 1× Detection Buffer were added, and further incubated with shaking at room temperature for 20 min. 10 μl/well of 1× Kinase-Glo was added, and the plate was incubated with shaking at room temperature for 10 min, and bioluminescence was measured with PheraStar instrument. The experimental results were plotted with GraphPad Prism software, and fitted to calculate IC50 of each compound.

PDE4D = target: T2, PDE4D (Homo sapiens, UniProt Q08499); experiment: PDE4D enzyme activity assay (PDE-Glo Phosphodiesterase Assay Kit); format: biochemical
T2 construct: purchased Enzo Life Sciences BML-SE523-0020
T2 sequence (Q08499 whole entry): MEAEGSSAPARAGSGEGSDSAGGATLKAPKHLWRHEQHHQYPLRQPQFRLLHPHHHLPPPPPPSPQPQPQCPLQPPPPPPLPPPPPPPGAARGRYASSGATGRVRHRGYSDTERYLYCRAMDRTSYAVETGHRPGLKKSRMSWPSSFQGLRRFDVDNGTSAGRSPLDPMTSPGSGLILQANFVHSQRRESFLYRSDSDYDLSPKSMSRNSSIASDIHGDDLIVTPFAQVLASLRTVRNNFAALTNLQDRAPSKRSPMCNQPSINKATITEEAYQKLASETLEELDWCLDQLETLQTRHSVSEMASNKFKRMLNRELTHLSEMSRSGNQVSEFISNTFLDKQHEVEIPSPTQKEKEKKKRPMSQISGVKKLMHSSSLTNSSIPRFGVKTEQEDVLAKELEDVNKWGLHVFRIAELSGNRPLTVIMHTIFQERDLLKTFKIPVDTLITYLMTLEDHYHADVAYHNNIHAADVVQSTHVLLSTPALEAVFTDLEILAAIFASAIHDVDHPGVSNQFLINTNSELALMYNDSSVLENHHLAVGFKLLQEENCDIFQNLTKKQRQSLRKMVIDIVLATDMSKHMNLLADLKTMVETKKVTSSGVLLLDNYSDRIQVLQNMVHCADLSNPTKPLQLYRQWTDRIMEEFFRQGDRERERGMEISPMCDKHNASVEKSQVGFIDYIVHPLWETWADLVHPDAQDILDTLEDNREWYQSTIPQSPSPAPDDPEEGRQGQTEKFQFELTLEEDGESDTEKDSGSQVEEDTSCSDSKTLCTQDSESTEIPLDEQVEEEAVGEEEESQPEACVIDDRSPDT
Procedure: as §1

[1] = system: LPS-induced secretion of TNFα in human PBMCs; experiment: LPS-induced secretion of TNFα in human PBMCs; format: cell-based; details: Homo sapiens, PBMC, 24 h, LPS 10 ng/ml
Procedure: Extraction process of peripheral blood mononuclear cells (PBMCs): one unit of human peripheral blood concentrate (concentrated from 200 cc peripheral blood) was sucked and added with 0.9% saline until a total volume reached 120 ml, and mixed homogenously. 15 ml Lymphoprep™ was added into 50 ml centrifuge tube, and then 30 ml of diluted blood concentrate was carefully and slowly added thereto, allowing the diluted blood to be stacked on the layered solution and preventing the diluted blood from being mixed into the separated solutions or breaking the surface of the separated solution, wherein a ratio of Lymphoprep™ to the diluted blood was 1:2. The centrifuge tubes were balanced and placed in a horizontal centrifuge (eppendorf, 5810R), and centrifuged at 800 g and 20° C. for 20 min. The centrifuge tubes were carefully taken out. PBMCs were absorbed by directly inserting the Pasteur pipette deep into the buffy coat. The obtained PBMCs were gently pipetted with 3 times the volume of 0.9% normal saline or PBS (without calcium or magnesium ions) to mix homogenously. After that, the cells were centrifuged at 250 g and 20° C. for 10 min, the supernatant was removed to remove the platelets remaining in the cell suspension. The obtained cell pellet was resuspended in 20 ml of PBS, and counted using trypan blue.
Compound screening by using PBMCs: the PBMC suspension obtained above was centrifuged to remove PBS, then resuspended in complete medium (RPMI1640+10% FBS+1% P/S) and counted. 100 μL/well of the cells was seeded at 5×10^4/well. Each of the compounds to be screened was prepared as 4 times the final concentration, which was added to the cells at 50 μL/well. The compound was pre-incubated for 30 min in advance of being added to the cells. Meanwhile, control wells to which the compound was not added were provided. A final stimulation concentration of LPS was 10 ng/ml, and LPS was formulated as 4 times the final stimulation concentration, and added to the cells at 50 μL/well. Meanwhile, control wells, i.e., wells without LPS were provided. The cells were incubated for 24 h, and 10% of the supernatant was collected for detection. The obtained supernatant was detected using Invitrogen's Human TNF-α kit (REF: 88-7346-88).

[2] = system: LPS-stimulated TNF-α release; experiment: LPS-stimulated TNF-α release in mice; format: in vivo, Balb/c mice; details: Mus musculus, oral 50 mg/kg (positive control 100 mg/kg), 1 mg/kg LPS i.p.
Procedure: 18 Balb/c mice (6 to 8 weeks) were randomly assigned to a blank group, a model group, and an administration group, 6 mice in each group. A vehicle (blank group, model group) or 50 mg/kg compound (administration group, where the dose for the positive control group was 100 mg/kg) was orally administrated. 30 min after the oral administration, PBS (blank group) or 1 mg/kg LPS (model group and administration group) was injected intraperitoneally. 90 min or 120 min after the intraperitoneal injection, blood was collected from the hearts of the mice, and still stood at 2-8° C. for 4 hours, and centrifuged at 5000 rpm for 10 min to collect the serum. The serum was stored at −80° C. for testing.
The serum TNF-α level was tested using a mouse TNF-α detection kit (Mouse TNFa ELISA kit: Biolegend, Cat: 430904). The inhibitory activity of the compounds against the TNF-α release was calculated based on the serum TNF-α level.
Inhibitory activity of compound %={1−(TNFα concentration of administration group−TNFα concentration of blank group)/(TNFα concentration of model group−TNFα concentration of blank group)}×100%.

[3] = 2 h, blood 120 min after LPS, read-out: Inhibition rate (%) of LPS-stimulated TNF-α release, 120 min
[4] = 1.5 h, blood 90 min after LPS, read-out: Inhibition rate (%) of LPS-stimulated TNF-α release, 90 min

COc1ccc([C@@H]2CN(C(=O)[C@@H](O)CO)C[C@@]2(C)[C@@H](C)O)cc1OC1CN(c2ccc(OC(C)C)cn2)C1 [Compound 028, (S)-2,3-dihydroxy-1-((3S,4S)-3-((R)-1-hydroxyethyl)-4-(3-((1-(5-isopropoxypyridin-2-yl)azetidin-3-yl)oxy)-4-methoxyphenyl)-3-methylpyrrolidin-1-yl)propan-1-one]
IC50 (PDE4B): 2.22 nM | IC50 (PDE4D)/IC50 (PDE4B) (PDE4B): 1.39 | IC50 (PDE4D): 3.08 nM | IC50 [1]: 2.94 nM

COc1ccc([C@@H]2CN(C(=O)[C@@H](O)CO)C[C@@]2(C)[C@@H](C)O)cc1OC1CN(c2ncc(Cl)cc2F)C1 [Compound 009, (S)-1-((3S,4S)-4-(3-((1-(5-chloro-3-fluoropyridin-2-yl)azetidin-3-yl)oxy)-4-methoxyphenyl)-3-((R)-1-hydroxyethyl)-3-methylpyrrolidin-1-yl)-2,3-dihydroxypropan-1-one]
inhibition in vivo at 50 mg/kg [2, 3]: 47.6% | IC50 (PDE4B): 0.78 nM | IC50 (PDE4D)/IC50 (PDE4B) (PDE4B): 5.99 | IC50 (PDE4D): 4.67 nM | IC50 [1]: 7.57 nM

COc1ccc([C@@H]2CN(C(=O)[C@@H](O)CO)C[C@@]2(C)[C@@H](C)O)cc1OC1CN(c2ccc(CC(F)(F)F)cn2)C1 [Compound 033, (S)-2,3-dihydroxy-1-((3S,4S)-3-((R)-1-hydroxyethyl)-4-(4-methoxy-3-((1-(5-(2,2,2-trifluoroethyl)pyridin-2-yl)azetidin-3-yl)oxy)phenyl)-3-methylpyrrolidin-1-yl)propan-1-one]
inhibition in vivo at 50 mg/kg [2, 4]: 70.3% | inhibition in vivo at 50 mg/kg [2, 3]: 75.9% | IC50 (PDE4B): 0.22 nM | IC50 (PDE4D)/IC50 (PDE4B) (PDE4B): 12.8 | IC50 (PDE4D): 2.81 nM | IC50 [1]: 0.53 nM

COc1ccc([C@@H]2CN(C(=O)[C@@H](O)CO)C[C@@]2(C)[C@@H](C)O)cc1OC1CN(c2cc(C)c(C#N)cn2)C1 [Compound 012, 6-(3-(5-((3S,4S)-1-((S)-2,3-dihydroxypropanoyl)-4-((R)-1-hydroxyethyl)-4-methylpyrrolidin-3-yl)-2-methoxyphenoxy)azetidin-1-yl)-4-methylnicotinonitrile]
IC50 (PDE4B): 2.09 nM | IC50 (PDE4D)/IC50 (PDE4B) (PDE4B): 0.27 | IC50 (PDE4D): 0.56 nM | IC50 [1]: 2.52 nM

COc1ccc([C@@H]2CN(C(=O)[C@@H](O)CO)C[C@@]2(C)[C@@H](C)O)cc1OC1CN(c2ncc(C)cc2C)C1 [Compound 021, (S)-1-((3S,4S)-4-(3-((1-(3,5-dimethylpyridin-2-yl)azetidin-3-yl)oxy)-4-methoxyphenyl)-3-((R)-1-hydroxyethyl)-3-methylpyrrolidin-1-yl)-2,3-dihydroxypropan-1-one]
IC50 (PDE4B): 4.15 nM | IC50 (PDE4D)/IC50 (PDE4B) (PDE4B): 3.59 | IC50 (PDE4D): 14.9 nM | IC50 [1]: 14.1 nM

COc1ccc(N2CC(Oc3cc([C@@H]4CN(C(=O)[C@@H](O)CO)C[C@@]4(C)[C@@H](C)O)ccc3OC)C2)nc1 [Compound 015, (S)-2,3-dihydroxy-1-((3S,4S)-3-((R)-1-hydroxyethyl)-4-(4-methoxy-3-((1-(5-methoxypyridin-2-yl)azetidin-3-yl)oxy)phenyl)-3-methylpyrrolidin-1-yl)propan-1-one]
IC50 (PDE4B): 0.68 nM | IC50 (PDE4D)/IC50 (PDE4B) (PDE4B): 1.28 | IC50 (PDE4D): 0.87 nM | IC50 [1]: 3.34 nM

COc1ccc([C@@H]2CN(C(=O)[C@@H](O)CO)C[C@@]2(C)[C@@H](C)O)cc1OC1CN(c2ccc(C(C)C)cn2)C1 [Compound 032, (S)-2,3-dihydroxy-1-((3S,4S)-3-((R)-1-hydroxyethyl)-4-(3-((1-(5-isopropylpyridin-2-yl)azetidin-3-yl)oxy)-4-methoxyphenyl)-3-methylpyrrolidin-1-yl)propan-1-one]
inhibition in vivo at 50 mg/kg [2, 4]: 75.8% | inhibition in vivo at 50 mg/kg [2, 3]: 84% | IC50 (PDE4B): 0.33 nM | IC50 (PDE4D)/IC50 (PDE4B) (PDE4B): 9.85 | IC50 (PDE4D): 3.25 nM | IC50 [1]: 0.26 nM

COc1ccc([C@@H]2CN(C(=O)[C@@H](O)CO)C[C@@]2(C)[C@@H](C)O)cc1OC1CN(c2ncc(C)cc2C#N)C1 [Compound 006, 2-(3-(5-((3S,4S)-1-((S)-2,3-dihydroxypropanoyl)-4-((R)-1-hydroxyethyl)-4-methylpyrrolidin-3-yl)-2-methoxyphenoxy)azetidin-1-yl)-5-methylnicotinonitrile]
IC50 (PDE4B): 1.37 nM | IC50 (PDE4D)/IC50 (PDE4B) (PDE4B): 0.98 | IC50 (PDE4D): 1.34 nM | IC50 [1]: 2.52 nM

COc1ccc([C@@H]2CN(C(=O)[C@@H](O)CO)C[C@@]2(C)[C@@H](C)O)cc1OC1CN(c2ncc(F)cc2Cl)C1 [Compound 014, (S)-1-((3S,4S)-4-(3-((1-(3-chloro-5-fluoropyridin-2-yl)azetidin-3-yl)oxy)-4-methoxyphenyl)-3-((R)-1-hydroxyethyl)-3-methylpyrrolidin-1-yl)-2,3-dihydroxypropan-1-one]
IC50 (PDE4B): 6.65 nM | IC50 (PDE4D)/IC50 (PDE4B) (PDE4B): 0.91 | IC50 (PDE4D): 6.02 nM | IC50 [1]: 15.1 nM

COc1ccc([C@@H]2CN(C(=O)[C@@H](O)CO)C[C@@]2(C)[C@@H](C)O)cc1OC1CN(c2ccc(C3CC3)cn2)C1 [Compound 034, (S)-1-((3S,4S)-4-(3-((1-(5-cyclopropylpyridin-2-yl)azetidin-3-yl)oxy)-4-methoxyphenyl)-3-((R)-1-hydroxyethyl)-3-methylpyrrolidin-1-yl)-2,3-dihydroxypropan-1-one]
inhibition in vivo at 50 mg/kg [2, 4]: 76.4% | inhibition in vivo at 50 mg/kg [2, 3]: 85.6% | IC50 (PDE4B): 0.25 nM | IC50 (PDE4D)/IC50 (PDE4B) (PDE4B): 11.8 | IC50 (PDE4D): 2.96 nM | IC50 [1]: 0.32 nM

COc1ccc([C@@H]2CN(C(=O)[C@@H](O)CO)C[C@@]2(C)[C@@H](C)O)cc1OC1CN(c2ccc(C)c(C#N)n2)C1 [Compound 003, 6-(3-(5-((3S,4S)-1-((S)-2,3-dihydroxypropanoyl)-4-((R)-1-hydroxyethyl)-4-methylpyrrolidin-3-yl)-2-methoxyphenoxy)azetidin-1-yl)-3-methylpicolinonitrile]
IC50 (PDE4B): 0.41 nM | IC50 (PDE4D)/IC50 (PDE4B) (PDE4B): 0.95 | IC50 (PDE4D): 0.39 nM | IC50 [1]: 1.48 nM
